Experimental findings from patent US20180305341A1 (RAQUALIA PHARMA INC., priority 2015, published 2018) are described below.

T1 sequence (Q7Z2W7 whole entry): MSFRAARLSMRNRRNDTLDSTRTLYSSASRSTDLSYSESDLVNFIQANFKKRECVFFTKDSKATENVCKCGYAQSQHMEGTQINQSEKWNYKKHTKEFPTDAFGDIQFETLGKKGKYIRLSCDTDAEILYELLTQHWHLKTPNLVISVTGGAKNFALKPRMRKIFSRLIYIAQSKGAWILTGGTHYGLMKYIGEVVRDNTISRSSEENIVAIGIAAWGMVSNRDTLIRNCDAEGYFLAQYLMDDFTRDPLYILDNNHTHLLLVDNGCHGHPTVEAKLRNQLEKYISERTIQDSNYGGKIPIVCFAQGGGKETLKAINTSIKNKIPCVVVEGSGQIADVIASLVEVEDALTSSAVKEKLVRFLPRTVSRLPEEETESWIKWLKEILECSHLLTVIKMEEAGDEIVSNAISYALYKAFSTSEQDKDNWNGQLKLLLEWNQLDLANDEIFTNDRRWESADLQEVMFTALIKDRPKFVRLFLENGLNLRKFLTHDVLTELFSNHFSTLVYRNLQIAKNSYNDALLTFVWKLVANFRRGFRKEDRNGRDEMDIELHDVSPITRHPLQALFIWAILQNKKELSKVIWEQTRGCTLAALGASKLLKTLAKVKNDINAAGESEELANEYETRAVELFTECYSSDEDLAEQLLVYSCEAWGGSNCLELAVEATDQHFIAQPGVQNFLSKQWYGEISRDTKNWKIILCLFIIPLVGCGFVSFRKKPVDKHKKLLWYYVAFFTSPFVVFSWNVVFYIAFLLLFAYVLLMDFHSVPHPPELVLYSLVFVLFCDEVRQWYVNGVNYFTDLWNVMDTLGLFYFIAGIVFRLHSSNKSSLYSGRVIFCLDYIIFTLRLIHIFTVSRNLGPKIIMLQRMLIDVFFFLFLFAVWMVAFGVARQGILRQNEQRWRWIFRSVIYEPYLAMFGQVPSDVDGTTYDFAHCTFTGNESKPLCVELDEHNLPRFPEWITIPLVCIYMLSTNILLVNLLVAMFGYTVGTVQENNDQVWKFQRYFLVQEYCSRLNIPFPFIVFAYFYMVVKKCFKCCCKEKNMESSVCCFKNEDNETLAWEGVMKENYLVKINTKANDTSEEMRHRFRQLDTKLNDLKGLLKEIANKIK

The assay addresses T1, human TRPM8 (Homo sapiens, UniProt Q7Z2W7).
T1 construct: expressed in transfected cells
Description: Menthol-induced Ca2+ influx in HEK293 cells stably expressing human TRPM8. The format is cell-based. The conditions noted are these: 30 microM menthol, read-out: IC50 against TRPM8. On the procedure:
Measurement of the Menthol-Induced Ca^2+ Influx in HEK293 Cells Stably Expressing Human TRPM8
A cell-based Ca^2+ influx assay using HEK293 cells stably expressing human TRPM8 is used to identify the activity of compounds.
HEK293 cells stably expressing human TRPM8 are grown in T175 flasks at 37° C. in a 5% CO2 humidified incubator to about 80% confluence. Media composition consists of Dulbecco's Modified Eagle Medium (high glucose), 10% fetal calf serum (FCS), 100 units/mL Penicillin, 100 microg/mL Streptomycin and 600 microg/mL Geneticine. At 24 hours prior to assay, cells are seeded in poly-D-lysine coated 384-well plates (BD FALCON) at a density of 30,000 cells per well in culture medium and grown overnight in 5% CO2 at 37° C. On the assay day, growth media is removed and cells are loaded with 0.5 microM Fluo4-AM (Molecular Probes) and 0.005% Pluronic F-127 dissolved in assay buffer (Hank's balanced salt solution (HBSS), 19.4 mM HEPES pH 7.4, 2.5 mM Probenecid) for 1 hour at room temperature. After washing with assay buffer, the cells are preincubated with various concentrations of the compounds for 5 min. The changes in intracellular calcium concentration by addition of 30 microM menthol are monitored by the cell imaging technology by Hamamatsu Photonics Functional Drug Screening System (FDSS).
The IC50 values for compounds of the present invention are determined from 11-point dose-response studies. Curves are generated using the average of duplicate wells for each data point. Finally, the IC50 values are calculated with the best-fit dose curve determined by XLfit (ID Business Solutions Ltd.).
Turning to `CC1=NC2(CCC(F)(F)CC2)C(=O)N1CC(=O)c1ccc(Oc2cccnn2)cc1` [Example 1], the IC50 was less than 50 nM.
Next, `CC1=NC2(CCCCC2)C(=O)N1CC(=O)c1ccc(-n2c(C)nc3ccccc32)cc1` [Example 2, 2-methyl-3-(2-(4-(2-methyl-1H-benzo[d]imidazol-1-yl)phenyl)-2-oxoethyl)-1,3-diazaspiro[4.5]dec-1-en-4-one]: less than 50 nM.
For `CCC1=NC2(CCC(F)(F)CC2)C(=O)N1CC(=O)c1ccc(Oc2cccnn2)cc1` [Example 3, 2-ethyl-8,8-difluoro-3-(2-oxo-2-(4-(pyridazin-3-yloxy)phenyl)ethyl)-1,3-diazaspiro[4.5]dec-1-en-4-one], the IC50 is less than 50 nM.
Under `CC1=NC2(CCC(F)(F)CC2)C(=O)N1CC(=O)c1ccc(-c2nnccc2C)cc1` [Example 4, 8,8-difluoro-2-methyl-3-(2-(4-(4-methylpyridazin-3-yl)phenyl)-2-oxoethyl)-1,3-diazaspiro[4,5]dec-1-en-4-one] stands less than 100 nM; under `CC1=NC2(CCC(F)(F)CC2)C(=O)N1CC(=O)c1ccc(-n2c(C)nc3ccccc32)cc1` [Example 5, 8,8-difluoro-2-methyl-3-(2-(4-(2-methyl-1H-benzo[d]imidazol-1-yl)phenyl)-2-oxoethyl)-1,3-diazaspiro[4.5]dec-1-en-4-one], less than 50 nM.
`CC1=NC2(CCC(F)(F)CC2)C(=O)N1CC(=O)c1ccc(-n2c(C)nc3cccnc32)cc1` [Example 6, 8,8-difluoro-2-methyl-3-(2-(4-(2-methyl-3H-imidazo[4,5-b]pyridin-3-yl)phenyl)-2-oxoethyl)-1,3-diazaspiro[4.5]dec-1-en-4-one]: the concentration for half-maximal inhibition (IC50) was less than 50 nM.

By IC50 is commonly meant the concentration that gives 50% inhibition.
